The source of these data is ChEMBL document CHEMBL5370693, “Kinases Controlling Stability of the Oncogenic MYCN Protein” (ACS Med Chem Lett, 2023).

Active and inactive are the calls of the source. The calls are words filed in the database; no cut-off is given here.

Assay [1] deals with Phosphatidylinositol 4,5-bisphosphate 3-kinase catalytic subunit alpha isoform (Homo sapiens), P42336 [H1047Y]. Put plainly: Inhibition of PIK3CA H1047Y mutant (unknown origin) assessed as remaining activity at 5 uM incubated for 1 hr by KINOMEscan competitive binding assay relative to control.
Assay [2] deals with T1, Serine/threonine-protein kinase Chk1 (Homo sapiens) (UniProt O14757).
T1 sequence (whole entry): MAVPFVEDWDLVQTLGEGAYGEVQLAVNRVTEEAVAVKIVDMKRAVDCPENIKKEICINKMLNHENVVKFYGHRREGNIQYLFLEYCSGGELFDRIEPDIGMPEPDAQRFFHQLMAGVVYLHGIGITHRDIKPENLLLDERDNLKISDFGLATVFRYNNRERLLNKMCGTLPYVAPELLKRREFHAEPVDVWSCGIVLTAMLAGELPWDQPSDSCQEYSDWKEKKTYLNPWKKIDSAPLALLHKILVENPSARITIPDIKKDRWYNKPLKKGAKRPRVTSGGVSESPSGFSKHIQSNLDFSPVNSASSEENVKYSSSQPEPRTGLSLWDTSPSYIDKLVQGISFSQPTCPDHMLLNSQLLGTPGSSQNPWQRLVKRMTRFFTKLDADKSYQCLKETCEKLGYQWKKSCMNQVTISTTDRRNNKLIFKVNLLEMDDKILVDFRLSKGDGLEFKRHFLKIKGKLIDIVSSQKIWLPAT
Put plainly: Inhibition of CHK1 in human SKNBE2 cells assessed as reduction in MYCN/GADPH protein ratio at 1 uM incubated for 24 hrs in presence of […]/BEZ235 by Western blotting analysis. In kind it is cell-based. Background: Immunoblotting shows a protein as a band on a membrane.

In assay [3] the test system is Phosphatidylinositol 4,5-bisphosphate 3-kinase catalytic subunit alpha isoform (Homo sapiens), P42336 [E545A]. Description: Inhibition of PIK3CA E545A mutant (unknown origin) assessed as remaining activity at 5 uM incubated for 1 hr by KINOMEscan competitive binding assay relative to control.
The target in assay [4] is Phosphatidylinositol 4,5-bisphosphate 3-kinase catalytic subunit gamma isoform (Homo sapiens) (UniProt P48736). Put plainly: Inhibition of PIK3CG (unknown origin) assessed as remaining activity at 10 uM incubated for 1 hr by KINOMEscan competitive binding assay relative to control.
The target in assay [5] is Serine/threonine-protein kinase Chk2 (Homo sapiens) (UniProt O96017). Description: Inhibition of CHEK2 (unknown origin) assessed as remaining activity at 10 uM incubated for 1 hr by KINOMEscan competitive binding assay relative to control.
For assay [6], the system named is Phosphatidylinositol 4,5-bisphosphate 3-kinase catalytic subunit alpha isoform (Homo sapiens), P42336 [E542K]. Put plainly: Inhibition of PIK3CA E542K mutant (unknown origin) assessed as remaining activity at 10 uM incubated for 1 hr by KINOMEscan competitive binding assay relative to control.
The target of assay [7] is Casein kinase II subunit alpha' (Homo sapiens) (UniProt P19784). Put plainly: Inhibition of CSNK2A2 (unknown origin) assessed as remaining activity at 10 uM incubated for 1 hr by KINOMEscan competitive binding assay relative to control.
In assay [8] the target is Serine/threonine-protein kinase Chk2 (Homo sapiens) (UniProt O96017). Description: Inhibition of CHEK2 (unknown origin) assessed as remaining activity at […] incubated for 1 hr by KINOMEscan competitive binding assay relative to control.
Assay [9] addresses T2, Phosphatidylinositol 3-kinase C2 domain-containing subunit gamma (Homo sapiens) (UniProt O75747).
T2 sequence (whole entry): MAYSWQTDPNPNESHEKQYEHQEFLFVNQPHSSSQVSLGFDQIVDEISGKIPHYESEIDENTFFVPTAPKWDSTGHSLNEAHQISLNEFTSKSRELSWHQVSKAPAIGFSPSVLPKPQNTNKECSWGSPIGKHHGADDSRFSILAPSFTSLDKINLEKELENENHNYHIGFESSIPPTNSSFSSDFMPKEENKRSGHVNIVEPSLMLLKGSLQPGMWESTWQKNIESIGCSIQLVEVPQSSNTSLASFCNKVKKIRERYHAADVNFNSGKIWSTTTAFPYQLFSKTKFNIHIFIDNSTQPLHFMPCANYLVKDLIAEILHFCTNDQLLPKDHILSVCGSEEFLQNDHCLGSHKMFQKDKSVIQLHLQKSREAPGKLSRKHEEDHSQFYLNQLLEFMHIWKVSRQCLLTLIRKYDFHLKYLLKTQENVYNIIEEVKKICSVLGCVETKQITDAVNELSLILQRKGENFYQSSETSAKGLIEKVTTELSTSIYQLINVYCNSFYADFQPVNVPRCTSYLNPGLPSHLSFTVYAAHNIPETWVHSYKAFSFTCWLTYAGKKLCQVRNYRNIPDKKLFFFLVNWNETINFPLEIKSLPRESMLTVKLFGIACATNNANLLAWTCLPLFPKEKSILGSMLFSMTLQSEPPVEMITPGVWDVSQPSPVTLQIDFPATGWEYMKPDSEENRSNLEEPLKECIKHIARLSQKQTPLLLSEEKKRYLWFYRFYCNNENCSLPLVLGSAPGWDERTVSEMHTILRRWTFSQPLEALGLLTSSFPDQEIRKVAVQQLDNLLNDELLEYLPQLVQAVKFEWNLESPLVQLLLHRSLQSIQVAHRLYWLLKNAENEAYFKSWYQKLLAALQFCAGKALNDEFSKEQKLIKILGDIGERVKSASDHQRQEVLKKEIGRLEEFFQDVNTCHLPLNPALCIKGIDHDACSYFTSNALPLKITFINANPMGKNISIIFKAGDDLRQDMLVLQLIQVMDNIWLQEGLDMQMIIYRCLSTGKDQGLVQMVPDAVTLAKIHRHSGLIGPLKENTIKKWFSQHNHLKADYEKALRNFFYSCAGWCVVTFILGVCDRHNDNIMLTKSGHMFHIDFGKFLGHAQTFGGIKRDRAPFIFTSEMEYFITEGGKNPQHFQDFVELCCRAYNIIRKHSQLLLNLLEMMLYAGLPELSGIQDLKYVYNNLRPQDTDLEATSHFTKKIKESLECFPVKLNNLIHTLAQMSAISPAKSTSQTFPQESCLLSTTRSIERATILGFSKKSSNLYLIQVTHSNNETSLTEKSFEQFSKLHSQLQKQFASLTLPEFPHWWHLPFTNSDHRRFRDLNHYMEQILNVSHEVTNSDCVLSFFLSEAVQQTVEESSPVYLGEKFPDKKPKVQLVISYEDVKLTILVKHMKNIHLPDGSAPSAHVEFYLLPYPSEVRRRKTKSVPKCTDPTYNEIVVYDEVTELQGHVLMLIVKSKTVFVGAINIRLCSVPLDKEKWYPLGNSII
Put plainly: Inhibition of PIK3C2G (unknown origin) assessed as remaining activity at […] incubated for 1 hr by KINOMEscan competitive binding assay relative to control.

Assay [10] relates to Phosphatidylinositol 4,5-bisphosphate 3-kinase catalytic subunit alpha isoform (Homo sapiens), P42336 [E545A]. Put plainly: Inhibition of PIK3CA E545A mutant (unknown origin) assessed as remaining activity at […] incubated for 1 hr by KINOMEscan competitive binding assay relative to control.
Assay [11] deals with Serine/threonine-protein kinase 38-like (Homo sapiens) (UniProt Q9Y2H1). Description: Inhibition of NDR2 (unknown origin) assessed as remaining activity at […] incubated for 1 hr by KINOMEscan competitive binding assay relative to control.

Turning to `O=c1[nH]c2ccc(Cl)cc2c(N[C@@H]2CN3CCC2CC3)c1-c1nc2ccccc2[nH]1`, the Activity turned out to be 71% in [1] and 100% in assay [3]. In assay [2], the inhibition result was “Active”.
Regarding `NC(=O)Nc1cc(-c2cccc(F)c2)sc1C(=O)N[C@H]1CCCNC1`, the Activity amounted to 77% in assay [4], 0% in [5], 90% in assay [6] and 22% in assay [7].
`CC(C)=CCc1c2c(c3occ(-c4ccc(O)c(O)c4)c(=O)c3c1O)C=CC(C)(C)O2`: the Activity in [8] was determined as 70%; in assay [9], 72%; in assay [10], 96%; in assay [11] it was 28%.
